From patent US10829520B2, “Beta-hairpin peptidomimetics” (POLYPHOR AG, priority 2015, dated 2020)
Where a SMILES comes first, the peptide text is derived from it. Bridges are numbered along the chain shown (N, C = ends). Roman numbers before positions name the chains, in order. [ ]: non-standard residue; d: D form. NMeDab = CN[C@@H](CCN)C(=O)O; Tle = CC(C)(C)[C@H](N)C(=O)O; dDab = NCC[C@@H](N)C(=O)O; Nle = CCCC[C@H](N)C(=O)O; Orn = NCCC[C@H](N)C(=O)O; Dab = NCC[C@H](N)C(=O)O

Key:
Type in all cases: cell-based
[1] = system: human red blood cells (hRBC); assay: Hemolysis of human red blood cells; details: red cells of human, 1 h, 100
In short: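 Washed fresh human erythrocytes (20% v/v, ~0.9×10^9 cells/mL final) were incubated with peptides at 100 μg/mL for 1 h at 37 °C with shaking. Supernatant OD540 measured; hemolysis expressed as % of 2.5% Triton X-100 lysis, with PBS/0.001% acetic acid as 0%.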

[2] = system: Acinetobacter baumannii 872842; details: 872842
Escherichia coli 926415 = details: 926415
[3] = system: Klebsiella pneumoniae SSI #3010; details: SSI #3010
In short: (§1)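 Read-out is the minimal inhibitory concentration in μg/mL, taken as the lowest peptide level without visible growth after 18-20 h at 35° C. Testing followed CLSI broth microdilution in cation-adjusted Mueller-Hinton II broth plus 0.002% Polysorbate 80, with roughly 10^6 CFU/mL.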

[4] = system: Pseudomonas aeruginosa ATCC 27853; details: ATCC 27853
In short: as §1

[5] = system: Escherichia coli ATCC 25922; details: ATCC 25922
In short: as §1

[6] = system: Klebsiella pneumoniae 968733; details: 968733
[7] = system: Acinetobacter baumannii DSM 30008; details: DSM 30008
In short: as §1

| Structure (SMILES) | Hemolysis at 100 μg/mL [1] [%] | Acinetobacter baumannii 872842 MIC [2] [µg/mL] | Escherichia coli 926415 MIC (Escherichia coli 926415) [µg/mL] | Klebsiella pneumoniae SSI #3010 MIC [3] [µg/mL] | Pseudomonas aeruginosa ATCC 27853 MIC [4] [µg/mL] | Escherichia coli ATCC 25922 MIC [5] [µg/mL] | Klebsiella pneumoniae 968733 MIC [6] [µg/mL] | Acinetobacter baumannii DSM 30008 MIC [7] [µg/mL] |
| --- | --- | --- | --- | --- | --- | --- | --- | --- |
| CCCC[C@@H]1NC(=O)[C@@H]2CCCN2C(=O)[C@H]2CCCN2C(=O)[C@H](CO)NC(=O)[C@H](C)NC(=O)[C@H](C(C)(C)C)NC(=O)[C@H](CCN)NC(=O)[C@H](Cc2c[nH]c3ccccc23)NC(=O)[C@H](CCN)NC(=O)[C@@H](CCN)NC(=O)[C@H](CC(=O)N[C@@H](CCN)C(=O)N[C@H]2CCNC(=O)[C@H]([C@@H](C)O)NC(=O)[C@H](CCN)NC(=O)[C@H](CCN)NC(=O)[C@H](CC(C)C)NC(=O)[C@@H](Cc3ccccc3)NC(=O)[C@H](CCN)NC2=O)NC(=O)[C@H](CCN)NC(=O)[C@H](Cc2ccc(O)cc2)NC(=O)[C@H](CO)NC1=O [Ex. 67] (I: cyclo([Nle]SY[Dab]D[dDab][Dab]W[Dab][Tle]AS[dP]P) / II: [Dab][Dab][Dab][dF]L[Dab][Dab]T; amide I:5-II:N; lactam II:2-II:C) | <1 | 4 | 2 | 2 | 1 | 1 | 2 | 1 |
| CCCC[C@@H]1NC(=O)[C@@H]2CCCN2C(=O)[C@H]2CCCN2C(=O)[C@H](CO)NC(=O)[C@H](C)NC(=O)[C@H](C(C)(C)C)NC(=O)[C@H](CCN)NC(=O)[C@H](Cc2c[nH]c3ccccc23)NC(=O)[C@H](CCN)NC(=O)[C@@H](CCN)NC(=O)[C@H](CC(=O)N(C)[C@@H](CCN)C(=O)N[C@H]2CCNC(=O)[C@H]([C@@H](C)O)NC(=O)[C@H](CCN)NC(=O)[C@H](CCN)NC(=O)[C@H](CC(C)C)NC(=O)[C@@H](Cc3ccccc3)NC(=O)[C@H](CCN)NC2=O)NC(=O)[C@H](CCN)NC(=O)[C@H](Cc2ccc(O)cc2)NC(=O)[C@H](CO)NC1=O [Ex. 69] (I: cyclo([Nle]SY[Dab]D[dDab][Dab]W[Dab][Tle]AS[dP]P) / II: [NMeDab][Dab][Dab][dF]L[Dab][Dab]T; amide I:5-II:N; lactam II:2-II:C) | 2 | 4 | 2 | 1 | 1 | 0.5 | 2 | 1 |
| CCCC[C@@H]1NC(=O)[C@@H]2CCCN2C(=O)[C@H]2CCCN2C(=O)[C@H](CO)NC(=O)[C@H](C)NC(=O)[C@H](C(C)(C)C)NC(=O)[C@H](CCN)NC(=O)[C@H](Cc2c[nH]c3ccccc23)NC(=O)[C@H](CCC(=O)N[C@@H](CCN)C(=O)N[C@H]2CCNC(=O)[C@H]([C@@H](C)O)NC(=O)[C@H](CCN)NC(=O)[C@H](CCN)NC(=O)[C@H](CC(C)C)NC(=O)[C@@H](CC(C)C)NC(=O)[C@H](CCN)NC2=O)NC(=O)[C@@H](CCN)NC(=O)[C@H](CCCN)NC(=O)[C@H](CCN)NC(=O)[C@H](Cc2ccc(O)cc2)NC(=O)[C@H](CO)NC1=O [Ex. 70] (I: cyclo([Nle]SY[Dab][Orn][dDab]EW[Dab][Tle]AS[dP]P) / II: [Dab][Dab][Dab][dL]L[Dab][Dab]T; amide I:7-II:N; lactam II:2-II:C) | <1 | 2 | 1 | 2 | 0.5 | 1 | 8 | 1 |
| CCCC[C@@H]1NC(=O)[C@@H]2CCCN2C(=O)[C@H]2CCCN2C(=O)[C@H](CO)NC(=O)[C@H](C)NC(=O)[C@H](C(C)(C)C)NC(=O)[C@H](CCN)NC(=O)[C@H](Cc2c[nH]c3ccccc23)NC(=O)[C@H](CCN)NC(=O)[C@@H](CCN)NC(=O)[C@H](CC(=O)N[C@@H](CCN)C(=O)N[C@H]2CCNC(=O)[C@H]([C@@H](C)O)NC(=O)[C@H](CCN)NC(=O)[C@H](CCN)NC(=O)[C@H](CC(C)C)NC(=O)[C@@H](CC(C)C)NC(=O)[C@H](CCN)NC2=O)NC(=O)[C@H](CCN)NC(=O)[C@H](Cc2ccc(O)cc2)NC(=O)[C@H](CO)NC1=O [Ex. 71] (I: cyclo([Nle]SY[Dab]D[dDab][Dab]W[Dab][Tle]AS[dP]P) / II: [Dab][Dab][Dab][dL]L[Dab][Dab]T; amide I:5-II:N; lactam II:2-II:C) | <1 | 1 | 0.25 | 2 | 0.5 | 0.125 | 2 | 0.5 |
| CCCC[C@@H]1NC(=O)[C@@H]2CCCN2C(=O)[C@H]2CCCN2C(=O)[C@H](CO)NC(=O)[C@H](C)NC(=O)[C@H](C(C)(C)C)NC(=O)[C@H](CCN)NC(=O)[C@H](Cc2c[nH]c3ccccc23)NC(=O)[C@H](CCN)NC(=O)[C@@H](CCN)NC(=O)[C@H](CCC(=O)N[C@H](CCN)C(=O)N[C@H]2CCNC(=O)[C@H]([C@@H](C)O)NC(=O)[C@H](CCN)NC(=O)[C@H](CCN)NC(=O)[C@H](CC(C)C)NC(=O)[C@@H](CC(C)C)NC(=O)[C@H](CCN)NC2=O)NC(=O)[C@H](CCN)NC(=O)[C@H](Cc2ccc(O)cc2)NC(=O)[C@H](CO)NC1=O [Ex. 72] (I: cyclo(W[Dab][Tle]AS[dP]P[Nle]SY[Dab]E[dDab][Dab]) / II: [dDab][Dab][Dab][dL]L[Dab][Dab]T; amide I:12-II:N; lactam II:2-II:C) | <1 | 1 | 0.5 | 1 | 1 | 1 | 1 | 1 |
| CCCC[C@@H]1NC(=O)[C@@H]2CCCN2C(=O)[C@H]2CCCN2C(=O)[C@H](CO)NC(=O)[C@H](C)NC(=O)[C@H](C(C)(C)C)NC(=O)[C@H](CCN)NC(=O)[C@H](Cc2c[nH]c3ccccc23)NC(=O)[C@H](CCN)NC(=O)[C@@H](CCN)NC(=O)[C@H](CC(=O)N(C)[C@@H](CCN)C(=O)N[C@H]2CCNC(=O)[C@H]([C@@H](C)O)NC(=O)[C@H](CCN)NC(=O)[C@H](CCN)NC(=O)[C@H](CC(C)C)NC(=O)[C@@H](CC(C)C)NC(=O)[C@H](CCN)NC2=O)NC(=O)[C@H](CCN)NC(=O)[C@H](Cc2ccc(O)cc2)NC(=O)[C@H](CO)NC1=O [Ex. 73] (I: cyclo(W[Dab][Tle]AS[dP]P[Nle]SY[Dab]D[dDab][Dab]) / II: [NMeDab][Dab][Dab][dL]L[Dab][Dab]T; amide I:12-II:N; lactam II:2-II:C) | 1 | 0.5 | 0.5 | 0.5 | 0.25 | 0.25 | 0.5 | 0.25 |
| CCCC[C@@H]1NC(=O)[C@@H]2CCCN2C(=O)[C@H]2CCCN2C(=O)[C@H](CO)NC(=O)[C@H](C)NC(=O)[C@H](C(C)(C)C)NC(=O)[C@H](CCN)NC(=O)[C@H](Cc2c[nH]c3ccccc23)NC(=O)[C@H](CCN)NC(=O)[C@H](CCC(=O)N[C@@H](CCN)C(=O)N[C@H](CCN)C(=O)N[C@H]2CCNC(=O)[C@H]([C@@H](C)O)NC(=O)[C@H](CCN)NC(=O)[C@H](CCN)NC(=O)[C@H](CC(C)C)NC(=O)[C@@H](Cc3ccccc3)NC(=O)[C@H](CCN)NC2=O)NC(=O)[C@H](CCCN)NC(=O)[C@H](CCN)NC(=O)[C@H](Cc2ccc(O)cc2)NC(=O)[C@H](CO)NC1=O [Ex. 74] (I: cyclo([Nle]SY[Dab][Orn]E[Dab]W[Dab][Tle]AS[dP]P) / II: [Dab][dDab][Dab][Dab][dF]L[Dab][Dab]T; amide I:6-II:N; lactam II:3-II:C) | 2 | 4 | 1 | 1 | 1 | 2 | 2 | 1 |
